Laboratory results from patent US11624685B2, “Method and system for imaging and analysis of a biological specimen” (The Board of Trustees of the Leland Stanford Junior …, priority 2016, dated 2023).

Key:
[1] = test system: ArcTRAP mice; assay: ArcTRAP labeling, background recombination; format: in vivo, mouse; details: novel aqueous formulation of 4TM, reduced dosage
Excerpt: Male ArcTRAP (ArcCreER+/−, Ai14+/−) mice were used for study. 6-7 week old ArcTRAP mice were handled and injected with saline daily for at least 5 days prior to the experiment (including the home cage controls) to minimize the labeling due to handling and injections. The mice were 7-8 weeks old at the time of behavioral labeling. […] The home cage control group remained in their home cage for the whole period. All the chambers were cleaned with 70% ethanol between trials. On experimental day 2, all mice received 5 mg/kg 4TM (IP injection) 3 hours after the behavioral challenge to enable TRAP labeling. All groups, including the home cage controls, received 4-hyroxytamoxifen injections at the same time of the day (2-3 PM). The bedding of all cages were refreshed daily for 48 hours to prevent 4TM retake. All the labeled mice were kept in their home cage for an additional 10 days to allow the full expression of tdTomoto before perfusion.
10 mg of 4TM (Sigma H6278) was first dissolved in 250 μl DMSO. This stock is first diluted in 5 ml of saline containing 2% Tween 80 and then diluted 1:1 again with saline. The final injectable solution contained: 1 mg/ml 4TM, 1% Tween 80 and 2.5% DMSO in saline.

[2] = test system: mPFC of Arc-rTag mice; assay: Activity-dependent ribosome profiling of mPFC (microarray, qPCR); format: in vivo, mouse; details: IP fraction, two weeks after labeling
Protocol: Male Arc-rTag mice were trained and labeled with 4TM with the same protocol used in ArcTRAP labeling. After labeling, the mice were returned and kept in their home cage for 14 days to allow full integration of tagged ribosomes.
Immunoaffinity purification of ribosome RNA from mPFC was carried out similarly to a protocol previously described (Sanz et al, Proc Natl Acad Sci USA, 106:13939-13944 (2009)) with minor modifications. For preparation of anti-GFP-conjugated dynabeads, for each sample 50 μl protein G dynabeads (Life Technologies) was first washed with PBST and then incubated with 2 μl anti-GFP antibody (Abcam, ab290) in a total volume of 200 μl PBST. […] RNA samples (all at 100 ng per sample) were processed at the Stanford Protein and Nucleic Acid Biotechnology Facility by one-cycle target preparation, labeling and hybridization to Mouse Gene 2.0 ST Array (Affymetrix), according to the manufacturer's protocol and analyzed by Affymetrix Transcriptiome Analysis Console.
For qPCR analysis, RNA was reverse transcribed using the ABI high capacity cDNA synthesis kit and used in quantitative PCR reactions containing SYBR-green fluorescent dye (ABI). Relative expression of mRNAs was determined after normalization with TBP levels using the ΔΔCt method. […]

Question: With 4-hydroxytamoxifen [4TM] as the molecule, how does the “background recombination in ArcTRAP line” value [1] read?
Answer: eliminate the background recombination

Question: With `COC(=O)[C@H]1[C@@H](OC(=O)c2ccccc2)C[C@@H]2CC[C@H]1N2C` [cocaine] as the molecule, how does the “Npas4 transcript enrichment in cocaine-activated cells compared to shock-activated cells” value [2] read?
Answer: 3 fold
